Molecular target: c-MET (Homo sapiens, UniProt P08581)
Test: Ki determination for the inhibition of c-MET (standard radiometric 33P-ATP kinase assay, polyE4Y substrate)
Format: biochemical
Conditions: 1.0 nM c-Met, 35 μM ATP, 0.5 mg/mL polyE4Y, 20 min; competitive tight-binding fit
Procedure: Ki Determination for the Inhibition of c-MET
Compounds of the invention were screened for their ability to inhibit c-MET kinase activity using a standard radiometric assay. Briefly, in this kinase assay the transfer of the terminal ^33P-phosphate in ^33P-ATP to substrate polyE4Y is interrogated. The assay was carried out in 96-well plates to a final volume of 100 μL per well containing 1.0 nM c-Met, 100 mM HEPES (pH 7.5), 10 mM MgCl2, 25 mM NaCl, 0.01% BSA, 1 mM DTT, 0.5 mg/mL polyE4Y, and 35 μM ATP. Accordingly, compounds of the invention were dissolved in DMSO to make 10 mM initial stock solutions. Serial dilutions in DMSO were then made to obtain the final solutions for the assay. A 1.5 μL aliquot of DMSO or inhibitor in DMSO was added to each well. The reaction was initiated by the addition of ^33P-ATP and polyE4Y (obtained from Sigma). After 20 min, the reaction was quenched with 50 μL of 30% trichloroacetic acid (TCA) containing 4 mM ATP. The reaction mixture was transferred to the 0.66 mm GF filter plates (Corning) and washed three times with 5% TCA. Following the addition of 50 μL of Ultimate Gold™ high efficiency scintillant (Packard Bioscience), the samples were counted in a Packard TopCount NXT Microplate Scintillation and Luminescence Counter (Packard BioScience). The Ki values were calculated using Microsoft Excel Solver macros to fit the data to the kinetic model for competitive tight-binding inhibition.

Chain of c-MET (P08581 25-1390): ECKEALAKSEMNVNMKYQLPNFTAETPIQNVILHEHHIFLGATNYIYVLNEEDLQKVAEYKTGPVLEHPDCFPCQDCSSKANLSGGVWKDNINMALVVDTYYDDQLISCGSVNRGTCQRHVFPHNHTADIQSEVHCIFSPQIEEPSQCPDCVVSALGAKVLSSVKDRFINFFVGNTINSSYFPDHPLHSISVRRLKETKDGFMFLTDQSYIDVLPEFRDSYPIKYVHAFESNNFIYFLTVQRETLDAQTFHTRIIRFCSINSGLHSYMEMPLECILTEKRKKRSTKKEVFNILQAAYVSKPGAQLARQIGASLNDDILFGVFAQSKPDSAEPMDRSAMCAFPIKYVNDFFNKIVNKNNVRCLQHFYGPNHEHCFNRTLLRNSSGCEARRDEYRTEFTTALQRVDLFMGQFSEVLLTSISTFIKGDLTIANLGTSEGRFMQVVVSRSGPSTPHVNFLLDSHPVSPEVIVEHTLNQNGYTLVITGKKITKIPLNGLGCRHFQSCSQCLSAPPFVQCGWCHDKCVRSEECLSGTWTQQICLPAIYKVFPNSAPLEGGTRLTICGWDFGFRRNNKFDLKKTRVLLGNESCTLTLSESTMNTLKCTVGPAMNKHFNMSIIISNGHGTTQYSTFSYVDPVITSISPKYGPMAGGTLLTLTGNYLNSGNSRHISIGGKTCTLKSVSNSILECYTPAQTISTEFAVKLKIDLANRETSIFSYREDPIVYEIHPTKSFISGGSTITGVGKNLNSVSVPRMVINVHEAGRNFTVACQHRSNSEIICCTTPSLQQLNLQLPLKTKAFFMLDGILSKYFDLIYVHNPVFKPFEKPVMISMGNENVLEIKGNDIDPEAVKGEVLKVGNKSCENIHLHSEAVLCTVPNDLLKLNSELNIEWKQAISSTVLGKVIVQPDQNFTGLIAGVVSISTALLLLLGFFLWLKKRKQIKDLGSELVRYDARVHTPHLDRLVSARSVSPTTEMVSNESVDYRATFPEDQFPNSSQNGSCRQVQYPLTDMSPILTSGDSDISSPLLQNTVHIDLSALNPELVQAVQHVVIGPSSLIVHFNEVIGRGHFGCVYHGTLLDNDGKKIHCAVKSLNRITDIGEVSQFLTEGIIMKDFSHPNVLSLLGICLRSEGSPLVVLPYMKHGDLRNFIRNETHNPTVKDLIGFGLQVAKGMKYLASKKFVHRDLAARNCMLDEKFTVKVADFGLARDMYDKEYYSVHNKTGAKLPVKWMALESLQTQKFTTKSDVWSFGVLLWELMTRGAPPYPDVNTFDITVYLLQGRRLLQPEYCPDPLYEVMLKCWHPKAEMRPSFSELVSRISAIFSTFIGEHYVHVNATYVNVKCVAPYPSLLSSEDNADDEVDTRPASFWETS

Row | Compound | Ki
1 | Cn1cnc(-c2cnc(N)c(-c3nnnn3-c3cccc(F)c3F)c2)c1 [I-A-495] | 100 to 1000 nM
2 | CC(=O)Nc1ccc(-c2cnc(N)c(-c3nnnn3-c3cc(Cl)ccc3F)c2)cc1 [I-A-582] | 100 to 1000 nM
3 | CC(=O)N1CCC(n2cc(-c3cnc(N)c(-c4nnnn4-c4cccc(F)c4Cl)c3)cn2)CC1 [I-A-392] | 100 to 1000 nM
4 | Nc1ncc(-c2cnn(C3CCCNCC3)c2)nc1-c1nnnn1-c1cccc(F)c1F (stereo not shown) [I-A-656] | ≤ 100 nM
5 | Nc1ncc(-c2cnn(C3CNC3)c2)cc1-c1nnnn1-c1cccc(Cl)c1F [I-A-650] | ≤ 100 nM
6 | CCCN1CCC(n2cc(-c3cnc(N)c(-c4nnnn4-c4cccc(F)c4F)c3)cn2)CC1 [I-A-461] | ≤ 100 nM
7 | Nc1ncc(-c2cc(O)c(F)c(F)c2)cc1-c1nnnn1-c1cccc(F)c1F [I-A-291] | 100 to 1000 nM
8 | COC(=O)C(N)c1ccc(-c2cnc(N)c(-c3nnnn3-c3cccc(F)c3F)c2)cc1 (stereo not shown) [I-A-206] | ≤ 100 nM
9 | Nc1ncc(-c2ccc3c(c2)CCNC3)cc1-c1nnnn1-c1cccc(F)c1F [I-A-509] | 100 to 1000 nM
10 | Nc1ncc(-c2cnn(C3CCN(C(=O)C(F)(F)F)CC3)c2)cc1-c1nnnn1-c1cccc(F)c1Cl [I-A-395] | 100 to 1000 nM
11 | CCOC(=O)CC(=O)Nc1ccc(-c2cnc(N)c(-c3nnnn3-c3cccc(F)c3F)c2)cc1 [I-A-196] | 100 to 1000 nM
12 | CN(C)S(=O)(=O)N1CCC(n2cc(-c3cnc(N)c(-c4nnnn4-c4cccc(Cl)c4F)c3)cn2)CC1 [I-A-442] | ≤ 100 nM
13 | Nc1ncc(-c2cccnc2)cc1-c1ncsc1-c1cccc(Cl)c1Cl [I-C-8, 3-(5-(2,3-Dichlorophenyl)thiazol-4-yl)-5-(pyridin-3-yl)pyridin-2-amine] | 100 to 1000 nM
14 | Nc1ncc(-c2ccn(C3CCNCC3)c2)cc1-c1nnnn1-c1cccc(Cl)c1F [I-A-652] | ≤ 100 nM
15 | CCOc1cccc(-c2cnc(N)c(-c3nnnn3-c3cccc(F)c3F)c2)c1 [I-A-315] | 100 to 1000 nM
16 | CCC(=O)N1CC=C(c2cnc(N)c(-c3nnnn3-c3cccc(F)c3F)c2)CC1 [I-A-511] | ≤ 100 nM
17 | Nc1ncc(-c2cnn(CC(=O)O)c2)cc1-c1nnnn1-c1cccc(F)c1F [I-A-350] | 100 to 1000 nM
18 | CN(C)Cc1ccc(-c2cnc(N)c(-c3nn(C4CCCCC4)cc3-c3cccc(Cl)c3Cl)c2)cc1 [I-B-11] | 100 to 1000 nM
19 | Nc1ncc(C2=CCN(C(=O)C3CC3)CC2)cc1-c1nnnn1-c1cccc(F)c1F [I-A-523] | ≤ 100 nM
20 | CC(=O)Nc1ccc(-c2cnc(N)c(-c3nncn3-c3cccc(Cl)c3Cl)c2)cc1 [I-A-76] | 100 to 1000 nM
21 | Nc1ncc(-c2ccc(N3CCCC3)nc2)nc1-c1nnc(O)n1-c1cccc(F)c1F [I-A-18] | 100 to 1000 nM

Row | Compound | Ki
22 | N#CCN1CCC(n2cc(-c3cnc(N)c(-c4nnnn4-c4cccc(F)c4F)c3)cn2)CC1 [I-A-462] | ≤ 100 nM
23 | Nc1ncc(-c2ccc3c(c2)OC(F)(F)O3)cc1-c1nnnn1-c1cccc(F)c1F [I-A-285] | 100 to 1000 nM
24 | Nc1ncc(-c2cnn(C3CC4CCC(C3)N4)c2)cc1-c1nnnn1-c1cccc(Cl)c1F (stereo not shown) [I-A-528] | ≤ 100 nM
25 | COc1c(F)cccc1-n1nnnc1-c1cc(-c2cccnc2)cnc1N [I-A-561] | 100 to 1000 nM
26 | Nc1ncc(-c2cccc(CO)c2)cc1-c1nnnn1-c1cccc(F)c1F [I-A-231] | ≤ 100 nM
27 | Nc1ncc(-c2cnn(C3CCCNCC3)c2)cc1-c1nnnn1-c1cccc(F)c1F (stereo not shown) [I-A-428] | ≤ 100 nM
28 | Nc1ncc(-c2cnn([C@@H]3CCOC3)c2)cc1-c1nnnn1-c1cccc(Cl)c1F [I-A-420] | ≤ 100 nM
29 | CN1CCN(Cc2ccc(-c3cnc(N)c(-c4nncn4-c4cccc(F)c4F)n3)cc2)CC1 [I-A-6] | ≤ 100 nM
30 | Nc1cccc(-c2cnc(N)c(-c3nnnn3-c3cccc(F)c3F)c2)c1 [I-A-201] | ≤ 100 nM
31 | CC(=O)c1cccc(-c2cnc(N)c(-c3nnnn3-c3cccc(F)c3F)c2)c1 [I-A-218] | ≤ 100 nM
32 | COc1ccc(F)cc1-n1nnnc1-c1cc(-c2ccc(CN(C)C)cc2)cnc1N [I-A-606] | 100 to 1000 nM
33 | Nc1ncc(C2=CCN(C(=O)C3CCCOC3)CC2)cc1-c1nnnn1-c1cccc(F)c1F (stereo not shown) [I-A-522] | ≤ 100 nM
34 | Nc1ccc(-c2cnc(N)c(-c3nnnn3-c3cccc(F)c3F)c2)cc1N [I-A-298] | ≤ 100 nM
35 | Nc1ncc(-c2ccc(F)nc2)cc1-c1nnnn1-c1cccc(F)c1F [I-A-318] | 100 to 1000 nM
36 | COCCOc1ccc(-c2cnc(N)c(-c3nnnn3-c3cccc(F)c3F)c2)cc1OCCOC [I-A-354] | ≤ 100 nM
37 | CN(C)Cc1ccc(-c2cnc(N)c(-c3nc4cc(F)ccc4n3-c3cccc(Cl)c3F)c2)cc1 [I-D-22] | 100 to 1000 nM
38 | COCCOC(=O)N1CCC(n2cc(-c3cnc(N)c(-c4nnnn4-c4cccc(Cl)c4F)c3)cn2)CC1 [I-A-440] | ≤ 100 nM
39 | Nc1ncc(-c2cccnc2)nc1-c1nncn1-c1cc(Cl)ccc1F [I-A-34] | 100 to 1000 nM
40 | Nc1ncc(-c2ccccc2O)cc1-c1nnnn1-c1cccc(F)c1F [I-A-145] | ≤ 100 nM
41 | CS(=O)(=O)Nc1cccc(-c2cnc(N)c(-c3nnnn3-c3cccc(F)c3F)c2)c1 [I-A-254] | ≤ 100 nM

Continued, values first:

Row | Ki | Compound
42 | ≤ 100 nM | CCN(CCO)Cc1ccc(-c2cnc(N)c(-c3nnnn3-c3cccc(F)c3F)c2)cc1 [I-A-146]
43 | ≤ 100 nM | Nc1ncc(-c2ccc(CN3CCCC3)cc2)cc1-c1nnnn1-c1c(F)cccc1F [I-A-615]
44 | ≤ 100 nM | Nc1ncc(-c2ccc(CN3CCCC3)cc2)cc1-c1nnnn1-c1c(F)cccc1Cl [I-A-616]
45 | ≤ 100 nM | CN(CCC#N)Cc1ccc(-c2cnc(N)c(-c3nnnn3-c3cccc(F)c3F)c2)cc1 [I-A-148]
46 | 100 to 1000 nM | Cc1ccc(-c2cnc(N)c(-c3nnnn3-c3cccc(F)c3F)c2)cc1 [I-A-255]
47 | 100 to 1000 nM | Nc1ncc(-c2ccc(CN3CCCC3)cc2)cc1-c1nnc(O)n1-c1cccc(F)c1F [I-A-362]
48 | ≤ 100 nM | Nc1ncc(-c2ccc(CN3CCCC3)cc2)cc1-c1nnnn1-c1cccc(Cl)c1F [I-A-343]
49 | 100 to 1000 nM | Nc1ncc(-c2ccc(N3CCCC3)nc2)cc1-c1nnnn1-c1cccc(Cl)c1Cl [I-A-82]
50 | 100 to 1000 nM | CC(=O)Nc1ccc(-c2cnc(N)c(-c3nnnn3-c3c(F)ccc(F)c3Cl)c2)cc1 [I-A-614]
51 | ≤ 100 nM | CN1CCN(Cc2ccc(-c3cnc(N)c(-c4nnnn4-c4cccc(F)c4F)n3)cc2)CC1 [I-A-50]
52 | 100 to 1000 nM | Nc1ncc(-c2cccnc2)cc1-c1nnnn1-c1c(Cl)cccc1Cl [I-A-609]
53 | ≤ 100 nM | Nc1ncc(-c2ccc(CN3CCC(N4CCCCC4)CC3)cc2)cc1-c1nnnn1-c1cccc(Cl)c1Cl [I-A-98]
54 | ≤ 100 nM | Nc1ncc(-c2ccc(CN3CCC[C@H]3CO)cc2)cc1-c1nnnn1-c1cccc(F)c1F [I-A-133]
55 | ≤ 100 nM | CC(=O)N(C)c1ccc(-c2cnc(N)c(-c3nnnn3-c3cccc(F)c3F)c2)cc1 [I-A-337]
56 | ≤ 100 nM | CCN(CC)Cc1ccc(-c2cnc(N)c(-c3nnnn3-c3cccc(F)c3F)c2)cc1 [I-A-66]
57 | ≤ 100 nM | CC1CCC(C)N1Cc1ccc(-c2cnc(N)c(-c3nnnn3-c3cccc(F)c3F)c2)cc1 (stereo not shown) [I-A-210]
58 | ≤ 100 nM | C[C@H](c1ccc(-c2cnc(N)c(-c3nnnn3-c3cccc(F)c3F)c2)cc1)N1CCCC1 [I-A-212]
59 | ≤ 100 nM | CN(C)Cc1ccc(-c2cnc(N)c(-c3nnnn3-c3c(Cl)cccc3Cl)c2)cc1 [I-A-629]
60 | 100 to 1000 nM | Nc1ncc(-c2ccc(NC(=O)CN3CCOCC3)cc2)cc1-c1nnnn1-c1cccc(F)c1F [I-A-163]
61 | 100 to 1000 nM | Nc1ncc(-c2ccc(CN3CCCC3)cc2)cc1-c1nnnn1-c1cc(F)cc(F)c1 [I-A-603]
